# Experimental data from patent publication US20250282775A1, “SOLID FORM OF 3-((1R,3R)-1-(2,6-DIFLUORO-4-((1-(3- FLUOROPROPYL)AZETIDIN-3-YL)AMINO)PHENYL)-3-METHYL-1,3,4,9- TETRAHYDRO-2H-PYRIDO[3,4-B]INDOL-2-YL)-2,2-DIFLUOROPROPAN-1-OL TARTRATE” (Hoffmann-La Roche Inc., priority 2022, published 2025).
# Experiments:
# Assay type in all cases: physicochemical
# [1] = Particle size distribution by laser diffraction; settings: API lot
# Description: The particle size distribution of crystalline 3-((1R,3R)-1-(2,6-difluoro-4-((1-(3-fluoropropyl)azetidin-3-yl)amino)phenyl)-3-methyl-1,3,4,9-tetrahydro-2H-pyrido[3,4-b]indol-2-yl)-2,2-difluoropropan-1-ol tartrate of the invention was analyzed by laser diffraction as described in the USP <429> for Laser Diffraction Measurement of Particle Size and in the European Pharmacopoeia chapter 2.9.31 Particle size analysis by Laser Diffraction. Details of the apparatus used and measurements are given in Example 3.
# For the measurement, a Malvern MasterSizer 3000 device from Malvern, UK, coupled with a liquid dispersion unit Hydro MV®, Malvern, UK was used. The crystalline Giredestrant tartrate as obtained from Example 1 or 2 was dispersed in dispersion medium consisting in technical grade n-heptane with 0.2% w/w.-% Span 85 (Sorbitane trioleate, e.g. Fluka/Sigma Cat. Nr. 85549 or equivalent) non-saturated.
# Procedure: the crystalline Giredestrant tartrate is directly added in the Hydro MV dispersion unit and stirred at 2500 rpm achieving an appropriate optical concentration (between 5% and 25% optical concentrations).
# Measurement: The test dispersion was measured and the cumulative volume dispersion was determined using the laser diffraction instrument mentioned above in accordance with the instruction manual. Measurements were performed after 2 minutes stirring time. The Fraunhofer approximation was used for the particle diameters calculations, Opaque Particle was used for the Particle type and General purpose was used for the Analysis model. The background and the measuring duration were set at 30 seconds.
# Three independent samples were measured one time. The average particle size distribution in volume at the undersize values of 10%, 50% and 90% (×10, ×50 and ×90) percentiles were evaluated from the cumulative distribution.
# (§1) The following table illustrates the improved manufacturability properties of the crystalline API that is prepared according to the process of the present invention (lot “BS2008SA02”). The E1 lot was prepared according to the process described in WO2019245974.
# [2] = Bulk density, tapped density and flowability of API; settings: for Bulk Density / Tapped Density: API lot
# Description: as §1
# [3] = BET surface area of API lots; settings: API lot
# Description: as §1
# [4] = Effect of compression on API degradation (HPLC); settings: 60° C./11% RH, containers open, up to 4 weeks, tartrate
# Description: The effect of compression on API degradation was investigated. Samples of uncompressed API (neat API powder as-is) and compressed API (compact) were aged at 60° C./11% RH with containers open for up to 1 month. Samples were assayed by HPLC (see Example 10). […] The following HPLC method was used to measure the RRCs described herein: [table]
# [5] = Form B as prepared per WO2019245974
SMILES,D10 [1] [μm],D50 [1] [μm],D90 [1] [μm],Bulk Density [2] [g/mL],Tapped Density [2] [g/mL],BET SA [3] [m2/g],"bulk density (in words) [2, 5]","flowability [2, 5]",growth of the impurity at RRT=0.58 ([4]; listed as compressed API),growth of the impurity at RRT=0.58 ([4]; listed as uncompressed API)
C[C@@H]1Cc2c([nH]c3ccccc23)[C@@H](c2c(F)cc(NC3CN(CCCF)C3)cc2F)N1CC(F)(F)CO.O=C(O)C(O)C(O)C(=O)O [711-005-5467-001 (E1)],2,8,27,0.31,0.41,2.9,–,–,–,–
C[C@@H]1Cc2c([nH]c3ccccc23)[C@@H](c2c(F)cc(NC3CN(CCCF)C3)cc2F)N1CC(F)(F)CO.O=C(O)C(O)C(O)C(=O)O [BS2008SA02],30,41,56,0.57,0.64,1.7,–,–,–,–
"C[C@@H]1Cc2c([nH]c3ccccc23)[C@@H](c2c(F)cc(NC3CN(CCCF)C3)cc2F)N1CC(F)(F)CO.O=C(O)C(O)C(O)C(=O)O [giredestrant tartrate, 3-((1R,3R)-1-(2,6-difluoro-4-((1-(3-fluoropropyl)azetidin-3-yl)amino)phenyl)-3-methyl-1,3,4,9-tetrahydro-2H-pyrido[3,4-b]indol-2-yl)-2,2-difluoropropan-1-ol tartrate]",–,–,–,–,–,–,low bulk density,poor flowability,faster growth rate,growth of the impurity at RRT=0.58 was observed
